Tests used:
[1] = test system: Leishmania donovani amastigotes grown in macrophages; conditions: Wyllie S et al., 2012; cited from earlier work
[2] = Multiple dosing study in dogs: systemic exposure (plasma) to fexinidazole and its metabolites; format: in vivo, dog; conditions: dog, in vivo, po, 800 mg/kg/day
Protocol: In an embodiment, the fexinidazole may be administered to the canine as an aqueous oral suspension, comprising 5% TWEEN 80 and 0.5% Methyl cellulose 400 cP (METHOCEL). Provided in this format, fexinidazole suspensions of 5, 20, and 80 mg fexinidazole/mL may be prepared such that 10 mL of each concentration contains 50, 200, and 800 mg fexinidazole, respectively.
Moreover, inventors expect that a wide variety of dosing regimens are now available to the skilled person to achieve the necessary and sufficient fexinidazole plasma levels. For example, and as further outlined in the Examples below, any dosing regimen that produces substantially similar fexinidazole plasma levels, as compared to those levels produced by giving the dogs about 60 mg/kg/day for about twenty-eight days, is expected to substantially or completely eliminate the Leishmania parasites. Table 1 presents the systemic fexinidazole exposure following dosing of dogs with 50, 200, and 800 mg/kg/day.

Compound	activity against Leishmania donovani amastigotes grown in macrophages [1]	AUC0-24 [2]
Cn1c([N+](=O)[O-])cnc1COc1ccc(S(C)(=O)=O)cc1 [sulfone metabolite]	active	
Cn1c([N+](=O)[O-])cnc1COc1ccc([S+](C)[O-])cc1 (stereo not drawn) [sulfoxide metabolite]	active	74.3 ± 14.4^(1) μg · hour/mL
